The source of these data is EP0074929A1, “Polycyclic polyazaheterocycles, process for their preparation and pharmaceutical preparations containing them” (CIBA-GEIGY AG, priority 1981, dated 1983).

Where a name gives a salt, the structure may show the parent alone. Read-outs that look alike come from different tables or passages of the source. Bounds are passed on as bounds.

In assay [1] the test system is durch Tetrabenazin induzierten Ptosis. The assay is described as follows: Antagonism of tetrabenazine-induced ptosis in the rat (Rubin et al.). It is filed as in vivo, Ratte. The procedure:
(§1) Die Verbindungen der allgemeinen Formel I und ihre Säureadditionssalze besitzen wertvolle psychopharmakologische Eigenschaften. Insbesondere wirken sie antagonistisch gegenüber der durch Reserpin induzierten Hypothermie, z.B. bei intraperitonealer oder peroraler Applikation an der Ratte, [vgl. Benz und Waser, Arzneimittelforsch. 21 (5) 654 (1971)] im Dosenbereich von 10 bis 100 mg/kg, und gegenüber der durch Tetrabenazin induzierten Ptosis bei intraperitonealer oder peroraler Applikation an der Ratte [vgl. Rubin et al., J. Pharmacol. exptl. Ther. 120, 125 (1957)] im Dosenbereich von 3 bis 100 mg/kg. Beispielsweise beträgt die ED50 von 4,5-Dihydro-2-[(dimethylamino)-methyl]-5-phenyl-1,2,4-triazolo[1,5-a]chinoxalin-hydrochlorid im zweitgenannten Test 3-10 mg/kg per os und 10 mg/kg i.p.. Im Sozialkonflikt-Test an der Ratte zeigen die Verbindungen der allgemeinen Formel I, wie die vorgenannte, anxiolytische Wirkung nach peroraler Verabreichung von Dosen ab 1 mg/kg. […] Die Toxizität der Verbindungen der allgemeinen Formel I ist im Vergleich zu den erwünschten pharmakologischen Wirkungen niedrig. Diese Eigenschaften kennzeichnen die Verbindungen der allgemeinen Formel I als Antidepressiva und Anxiolytica, die zur Behandlung von Depressionen Verwendung finden können.

The test system of assay [2] is isolierten Meerschweinchenvorhof. The assay is described as follows: Isolated guinea pig atrium, inotropic and chronotropic effect. More on the design: species or system Meerschweinchen.
The test system of the next assay is Sozialkonflikt-Test. As to the kind of experiment: Social conflict test in the rat. As to conditions: po, peroral, lowest dose with anxiolytic effect, read-out: anxiolytische Wirkung nach peroraler Verabreichung von Dosen ab. It is filed as in vivo, Ratte. The procedure: as §1
The subject of assay [3] is isolierten Meerschweinchenvorhof. The following applies: known antidepressants, stated as contrast; cited from earlier work.

For `CN(C)Cc1nc2n(n1)-c1ccccc1N(c1ccccc1)C2` [4,5-Dihydro-2-[(dimethylamino)-methyl]-5-phenyl-1,2,4-triazolo[1,5-a]chinoxalin-hydrochlorid], the 50% effect level in assay [1] (ip) (ED50) was put at a dose of 10 mg/kg. The same molecule yielded a 50% effective dose (ED50) in assay [1] (po, per os) of 3 to 10 mg/kg. Moreover, in assay [2], the “chronotrope Wirkung” value was “schwach negativ chronotrope” and the “inotrope Wirkung” value is “schwach positiv inotrope”. The minimal effective dose in the assay with Sozialkonflikt-Test was ≥ 1 mg/kg.

Turning to `CN(C)CCCN1c2ccccc2CCc2ccccc21` [Imipramin], in assay [3], the “chronotrope Wirkung” value is “positiv chronotropen” and the “inotrope Wirkung” value is reported as “eher negativ inotropen”.

As a reminder, the ED50 is the dose at which the effect has come halfway, by size or by number of responders.
